The record followed here is ChEMBL document CHEMBL1131527, “Estradiol-mimetic probes. Preparation of 17 alpha-(6-aminohexynyl)estradiol biotin, fluorescein and acridinium conjugates” (Bioorg Med Chem Lett, 1998).

What is called Kd is a measure of binding affinity in units of concentration. A low value points to higher affinity.

The assay in a line: Equilibrium dissociation constant of the compound. Type of assay: ADME.

As to `C[C@]12CC[C@@H]3c4ccc(O)cc4CC[C@H]3[C@@H]1CC[C@@]2(O)C#CCCCCNC(=O)c1ccc2c(c1)C(=O)OC21c2ccc(O)cc2Oc2cc(O)ccc21`, the Kd turned out to be 0.0973 µM. Under `C[C@]12CC[C@@H]3c4ccc(O)cc4CC[C@H]3[C@@H]1CC[C@@]2(O)C#CCCCCNC(=O)CCCCC1SC[C@@H]2NC(=O)N[C@H]12` (stereo partly drawn) stands 0.141 µM; under `Cc1ccc(S(=O)(=O)N(CCCC(=O)NCCCCC#C[C@]2(O)CC[C@H]3[C@@H]4CCc5cc(O)ccc5[C@H]4CC[C@@]32C)C(=O)c2c3ccccc3[n+](CCCS(=O)(=O)[O-])c3ccccc23)cc1`, 0.198 µM.
